Measurements: patent US20230257372A1 (CHONG KUN DANG PHARMACEUTICAL CORP., priority 2020, published 2023)
Like-named read-outs stand apart in the source and are kept apart here.

Key:
[1] = system: hippocampal neurons from a Sprague-Dawley (SD) rat fetus; experiment: Effect of HDAC6-specific inhibitor on axonal transport of mitochondria in amyloid-beta treated neurons; format: cell-based; settings: transport velocity of mitochondria in neuronal axon after normalization; vehicle = 100%, amyloid beta treatment group = 0%; compound treatment for three hours
In short: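 Rat E17-18 hippocampal neurons exposed to amyloid-beta fragments […]; after 24 h (day 8 in vitro) compound added for 3 h, mitochondria stained with MitoTracker Red CMXRos. Confocal imaging every 1 s for 1 min gave per-mitochondrion velocity, normalized vehicle = 100%, amyloid-beta = 0%.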

[2] = target: T1, human recombinant HDAC1 (Homo sapiens, UniProt Q13547); experiment: HDAC1 enzyme activity inhibition (HDAC Fluorimetric Drug Discovery Kit); format: biochemical; settings: read-out: HDAC1
T1 construct: purchased Enzo Life Science, Inc. BML-SE456
In short: (§1)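 Fluorimetric deacetylase read-out. 5-fold compound dilutions; […] enzyme, 10 μM substrate; 30° C, 60 min; developer 30 min.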

[3] = target: T2, human recombinant HDAC6 (Homo sapiens, UniProt Q9UBN7); experiment: HDAC6 enzyme activity inhibition (HDAC Fluorimetric Drug Discovery Kit); format: biochemical
T2 construct: purchased Calbiochem Inc. 382180
T2 sequence (Q9UBN7 1-1215): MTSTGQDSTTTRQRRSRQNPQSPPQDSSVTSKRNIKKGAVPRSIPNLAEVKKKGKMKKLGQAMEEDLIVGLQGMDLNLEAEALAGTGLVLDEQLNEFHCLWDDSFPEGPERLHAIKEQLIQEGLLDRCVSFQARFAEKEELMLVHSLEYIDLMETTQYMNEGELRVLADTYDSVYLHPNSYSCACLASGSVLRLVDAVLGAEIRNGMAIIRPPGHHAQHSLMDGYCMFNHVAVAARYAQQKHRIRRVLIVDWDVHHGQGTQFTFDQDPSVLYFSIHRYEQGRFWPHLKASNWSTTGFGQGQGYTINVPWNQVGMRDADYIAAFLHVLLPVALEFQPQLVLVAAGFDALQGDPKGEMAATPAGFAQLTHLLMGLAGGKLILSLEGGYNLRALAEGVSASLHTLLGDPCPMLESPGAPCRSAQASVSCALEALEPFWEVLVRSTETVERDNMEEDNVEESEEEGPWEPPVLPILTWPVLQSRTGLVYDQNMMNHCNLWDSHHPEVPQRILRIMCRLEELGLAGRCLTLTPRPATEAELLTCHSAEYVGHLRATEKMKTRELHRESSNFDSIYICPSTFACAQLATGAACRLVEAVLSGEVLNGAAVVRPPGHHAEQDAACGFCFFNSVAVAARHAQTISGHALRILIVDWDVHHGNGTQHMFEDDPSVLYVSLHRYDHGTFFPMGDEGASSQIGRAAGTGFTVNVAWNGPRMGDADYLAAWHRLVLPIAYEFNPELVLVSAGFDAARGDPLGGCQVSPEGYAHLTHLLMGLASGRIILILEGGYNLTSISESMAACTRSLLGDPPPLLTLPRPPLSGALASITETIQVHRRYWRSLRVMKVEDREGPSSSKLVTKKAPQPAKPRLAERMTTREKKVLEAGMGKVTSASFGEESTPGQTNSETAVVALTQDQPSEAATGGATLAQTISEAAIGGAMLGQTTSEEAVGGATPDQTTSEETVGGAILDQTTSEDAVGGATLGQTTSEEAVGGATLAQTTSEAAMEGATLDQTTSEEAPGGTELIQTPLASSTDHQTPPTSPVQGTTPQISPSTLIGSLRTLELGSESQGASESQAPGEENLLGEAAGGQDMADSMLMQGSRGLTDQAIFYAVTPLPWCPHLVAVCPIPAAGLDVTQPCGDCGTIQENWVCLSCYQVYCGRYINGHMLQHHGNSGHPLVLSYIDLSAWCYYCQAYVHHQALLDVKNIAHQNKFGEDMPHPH
In short: as §1

[4] = human recombinant HDAC1, IC50 calculated with GraphPad Prism
[5] = human recombinant HDAC6, IC50 calculated with GraphPad Prism

T1 sequence (Q13547 whole entry): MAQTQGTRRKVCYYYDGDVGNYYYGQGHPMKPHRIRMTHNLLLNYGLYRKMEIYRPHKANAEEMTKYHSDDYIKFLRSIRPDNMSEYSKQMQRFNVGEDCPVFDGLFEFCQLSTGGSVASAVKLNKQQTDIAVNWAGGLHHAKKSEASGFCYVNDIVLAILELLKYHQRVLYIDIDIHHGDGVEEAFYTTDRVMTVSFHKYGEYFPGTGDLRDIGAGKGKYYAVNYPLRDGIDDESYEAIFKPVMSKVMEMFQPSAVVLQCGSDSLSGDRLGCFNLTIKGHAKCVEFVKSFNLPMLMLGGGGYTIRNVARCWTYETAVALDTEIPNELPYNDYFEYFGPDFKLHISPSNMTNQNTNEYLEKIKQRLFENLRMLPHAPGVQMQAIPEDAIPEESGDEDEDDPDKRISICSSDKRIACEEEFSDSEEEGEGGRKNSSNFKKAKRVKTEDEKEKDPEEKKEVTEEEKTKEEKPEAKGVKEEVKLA

| IC50 [2, 4] | HDAC6 selectivity (fold) ([3]; HDAC1 IC50 / HDAC6 IC50) | IC50 [3, 5] | IC50 ([2]; human recombinant HDAC1, Fluor de Lys substrate, 30° C. 60 minutes) | HDAC6 selectivity (fold) ([3]; HDAC6 over HDAC1) | IC50 ([3]; human recombinant HDAC6, same protocol as HDAC1) | SMILES | Velocity distribution (%) [1] |
| --- | --- | --- | --- | --- | --- | --- | --- |
| > 50 µM | 1256 fold | 0.0398 µM | – | – | – | CN1CCN(c2ccc(-c3cn(Cc4ccc(-c5nnc(C(F)F)o5)cn4)nn3)cc2)CC1 [Compound 4107, 2-(difluoromethyl)-5-(6-((4-(4-(4-methylpiperazin-1-yl)phenyl)-1H-1,2,3-triazol-1-yl)methyl)pyridin-3-yl)-1,3,4-oxadiazole] | ** (**, 50%˜100%) |
| > 50 µM | 5952 fold | 0.0084 µM | – | – | – | FC(F)c1nnc(-c2ccc(Cn3cc(-c4cnc5[nH]ccc5c4)nn3)nc2)o1 [Compound 3841, 2-(6-((4-(1H-pyrrolo[2,3-b]pyridin-5-yl)-1H-1,2,3-triazol-1-yl)methyl)pyridin-3-yl)-5-(difluoromethyl)-1,3,4-oxadiazole] | *** (***, >100%) |
| > 50 µM | 4132 fold | 0.0121 µM | – | – | – | CCOC(=O)Nc1cccc(-c2cn(Cc3ccc(-c4nnc(C(F)F)o4)cn3)nn2)c1 [Compound 3826] | * (*, 0%˜50%) |

Continued, compound first:

| SMILES | IC50 [2, 4] | HDAC6 selectivity (fold) ([3]; HDAC1 IC50 / HDAC6 IC50) | IC50 [3, 5] | IC50 ([2]; human recombinant HDAC1, Fluor de Lys substrate, 30° C. 60 minutes) | HDAC6 selectivity (fold) ([3]; HDAC6 over HDAC1) | IC50 ([3]; human recombinant HDAC6, same protocol as HDAC1) | Velocity distribution (%) [1] |
| --- | --- | --- | --- | --- | --- | --- | --- |
| FC(F)c1nnc(-c2ccc(Cn3cc(-c4ccc5[nH]ccc5c4)nn3)cc2)o1 [Compound 4080, 2-(4-((4-(1H-indol-5-yl)-1H-1,2,3-triazol-1-yl)methyl)phenyl)-5-(difluoromethyl)-1,3,4-oxadiazole] | > 50 µM | 2145 fold | 0.0233 µM | – | – | – | *** (***, >100%) |
| FC(F)c1nnc(-c2ccc(Cn3cc(-c4cccc5[nH]ccc45)nn3)nc2)o1 [Compound 3839, 2-(6-((4-(1H-indol-4-yl)-1H-1,2,3-triazol-1-yl)methyl)pyridin-3-yl)-5-(difluoromethyl)-1,3,4-oxadiazole] | > 50 µM | 6756 fold | 0.0074 µM | – | – | – | * (*, 0%˜50%) |
| FC(F)c1nnc(-c2ccc(Cn3cc(-c4cccc5[nH]ncc45)nn3)cc2)o1 [Compound 4347, 2-(4-((4-(1H-indazol-4-yl)-1H-1,2,3-triazol-1-yl)methyl)phenyl)-5-(difluoromethyl)-1,3,4-oxadiazole] | > 50 µM | 6849 fold | 0.0073 µM | – | – | – | * (*, 0%˜50%) |
| Fc1cc(-c2nnc(C(F)F)o2)ccc1Cn1cc(-c2ccc3cn[nH]c3c2)nn1 [Compound 4342, 2-(4-((4-(1H-indazol-6-yl)-1H-1,2,3-triazol-1-yl)methyl)-3-fluorophenyl)-5-(difluoromethyl)-1,3,4-oxadiazole] | > 50 µM | 1453 fold | 0.0344 µM | – | – | – | * (*, 0%˜50%) |
| Fc1cc(-c2nnc(C(F)F)o2)ccc1Cn1cc(-c2ccc3c(CN4CCCC4)c[nH]c3c2)nn1 [Compound 4109, 2-(difluoromethyl)-5-(3-fluoro-4-((4-(3-(pyrrolidin-1-ylmethyl)-1H-indol-6-yl)-1H-1,2,3-triazol-1-yl)methyl)phenyl)-1,3,4-oxadiazole] | > 50 µM | 3649 fold | 0.0137 µM | – | – | – | *** (***, >100%) |
| Fc1cc(-c2nnc(C(F)F)o2)cnc1Cn1cc(-c2ccc(CN3CCC3)cc2)nn1 [Compound 18306, 2-(6-((4-(4-(azetidin-1l-ylmethyl)phenyl)-1H-1,2,3-triazol-1-yl)methyl)-5-fluoropyridin-3-yl)-5-(difluoromethyl)-1,3,4-oxadiazole] | – | – | – | > 50 µM | 1184 fold | 0.0422 µM | *** (***, >100%) |
| FC(F)c1nnc(-c2ccc(Cn3cc(-c4ccc5c(CN6CCCC6)c[nH]c5c4)nn3)cc2)o1 [Compound 4108, 2-(difluoromethyl)-5-(4-((4-(3-(pyrrolidin-1-ylmethyl)-1H-indol-6-yl)-1H-1,2,3-triazol-1-yl)methyl)phenyl)-1,3,4-oxadiazole] | > 50 µM | 5882 fold | 0.0085 µM | – | – | – | *** (***, >100%) |
